# According to article PMC3071879 (Journal of the American Chemical Society, 2011):
# Assays:
# Assay type in all cases: biochemical
# PacV = PacV (Streptomyces coeruleorubidus, UniProt E2EKQ4); experiment: SDS-PAGE autoradiography of […]-methyl transfer; conditions: methyl acceptor DABA tethered to holo-PacP; labelled compound
# PacP = molecular target: T1, PacP (Streptomyces coeruleorubidus, UniProt E2EKP8); experiment: ATP-[…]PPi exchange; conditions: adenylation
# T1 sequence (E2EKP8 1-848): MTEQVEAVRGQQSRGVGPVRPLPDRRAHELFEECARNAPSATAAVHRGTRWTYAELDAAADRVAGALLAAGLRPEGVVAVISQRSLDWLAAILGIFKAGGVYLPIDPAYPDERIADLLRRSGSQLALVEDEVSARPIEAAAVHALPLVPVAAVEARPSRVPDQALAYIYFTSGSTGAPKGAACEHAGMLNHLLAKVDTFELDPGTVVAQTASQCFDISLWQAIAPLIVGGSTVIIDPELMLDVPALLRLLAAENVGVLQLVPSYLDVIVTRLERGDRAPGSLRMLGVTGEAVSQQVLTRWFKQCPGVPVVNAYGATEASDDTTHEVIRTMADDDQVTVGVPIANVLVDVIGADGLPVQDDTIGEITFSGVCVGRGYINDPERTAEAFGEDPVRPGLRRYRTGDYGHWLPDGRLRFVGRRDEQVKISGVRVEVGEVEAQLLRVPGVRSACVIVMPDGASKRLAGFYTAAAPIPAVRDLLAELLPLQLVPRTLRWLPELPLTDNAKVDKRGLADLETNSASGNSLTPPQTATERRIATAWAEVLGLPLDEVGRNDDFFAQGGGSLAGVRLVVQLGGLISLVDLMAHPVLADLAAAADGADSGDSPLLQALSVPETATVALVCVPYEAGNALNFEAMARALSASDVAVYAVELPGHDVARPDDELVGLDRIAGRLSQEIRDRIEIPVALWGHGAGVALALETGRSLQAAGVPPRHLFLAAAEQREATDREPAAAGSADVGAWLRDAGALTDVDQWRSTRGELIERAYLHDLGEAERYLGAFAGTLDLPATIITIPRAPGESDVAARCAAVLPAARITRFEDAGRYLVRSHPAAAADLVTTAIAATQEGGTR
# PacU = molecular target: T2, PacU (Streptomyces coeruleorubidus, UniProt E2EKQ3); experiment: ATP-[…]PPi exchange; conditions: adenylation
# T2 sequence (E2EKQ3 1-507): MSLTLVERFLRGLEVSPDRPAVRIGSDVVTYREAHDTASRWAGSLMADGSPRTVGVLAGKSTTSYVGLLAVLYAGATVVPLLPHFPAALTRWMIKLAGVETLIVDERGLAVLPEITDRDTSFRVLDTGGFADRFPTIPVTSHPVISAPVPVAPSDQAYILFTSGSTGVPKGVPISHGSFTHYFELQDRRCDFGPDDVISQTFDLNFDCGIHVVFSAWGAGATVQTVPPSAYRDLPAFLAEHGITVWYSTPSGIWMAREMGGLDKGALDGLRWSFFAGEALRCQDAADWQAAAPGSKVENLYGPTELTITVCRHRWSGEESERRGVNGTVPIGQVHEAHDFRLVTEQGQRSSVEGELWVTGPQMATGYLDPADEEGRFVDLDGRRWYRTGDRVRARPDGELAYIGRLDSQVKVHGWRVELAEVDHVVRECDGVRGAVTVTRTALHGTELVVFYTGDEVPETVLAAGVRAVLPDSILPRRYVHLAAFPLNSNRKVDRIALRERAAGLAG
# PacW = molecular target: T3, PacW (Streptomyces coeruleorubidus, UniProt F5BFC7); experiment: ATP-[…]PPi exchange; conditions: adenylation, DL mixture used
# T3 sequence (F5BFC7 1-507): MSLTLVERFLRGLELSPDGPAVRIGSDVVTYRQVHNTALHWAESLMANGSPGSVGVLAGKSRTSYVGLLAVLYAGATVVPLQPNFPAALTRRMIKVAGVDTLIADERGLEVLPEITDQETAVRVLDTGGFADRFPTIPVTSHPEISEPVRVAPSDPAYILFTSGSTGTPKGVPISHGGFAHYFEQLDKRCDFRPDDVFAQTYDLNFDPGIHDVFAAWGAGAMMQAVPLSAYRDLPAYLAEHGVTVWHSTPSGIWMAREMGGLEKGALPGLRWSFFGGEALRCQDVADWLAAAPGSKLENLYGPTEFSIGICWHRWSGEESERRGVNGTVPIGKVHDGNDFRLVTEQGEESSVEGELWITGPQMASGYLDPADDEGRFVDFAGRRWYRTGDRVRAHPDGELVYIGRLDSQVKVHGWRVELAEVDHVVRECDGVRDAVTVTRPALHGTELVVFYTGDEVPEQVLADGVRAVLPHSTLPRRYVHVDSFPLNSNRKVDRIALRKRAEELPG
# Chain of PacV (E2EKQ4 1-250): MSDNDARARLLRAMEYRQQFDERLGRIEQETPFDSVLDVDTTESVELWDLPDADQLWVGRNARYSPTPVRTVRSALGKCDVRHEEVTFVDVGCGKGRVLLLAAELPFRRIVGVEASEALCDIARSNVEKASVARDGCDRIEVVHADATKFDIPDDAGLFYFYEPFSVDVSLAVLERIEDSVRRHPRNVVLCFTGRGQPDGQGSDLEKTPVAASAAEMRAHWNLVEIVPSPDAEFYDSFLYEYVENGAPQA
structure (smiles),measurement,setting,value
C[S+](CC[C@H](N)C(=O)O)C[C@H]1O[C@@H](n2cnc3c(N)ncnc32)[C@H](O)[C@@H]1O (stereo partly shown) [S-adenosylmethionine],SDS-PAGE autoradiography of 14C-methyl transfer,PacV,PacV indeed transferred the methyl group from S-adenosylmethionine (SAM) to holo-PacP
"C[C@H](N)[C@H](N)C(=O)O [2S,3S-DABA]",ATP-[32P]PPi exchange,PacP,"PacP exhibited a preference toward reversible formation of 2S,3S-DABA-AMP"
C[C@H](N)C(=O)O [L-Ala],ATP-[32P]PPi exchange,PacU,exhibited a strong preference toward reversible formation of L-Ala-AMP
NC(Cc1cccc(O)c1)C(=O)O (racemic) [m-Tyr],ATP-[32P]PPi exchange,PacW,demonstrated a strong preference for the activation of m-Tyr over other aromatic amino acids
